Measured values reported in patent US8318719B2, “Inhibitors of Bruton's tyrosine kinase” (Roche Palo Alto LLC, priority 2009, dated 2012).

What follows are compounds tested on B cell receptor-mediated activation of B cells in human blood (assay: Inhibition of B cell activation in whole blood measured by CD69 expression). Settings: anti-IgM stimulation 20 h, concentration decreasing by 50% the percentage of CD69-positive cells that are also CD20-positive.
Assay type: cell-based
Protocol: Inhibition of B Cell Activation in Whole Blood Measured by CD69 Expression
A procedure to test the ability of Btk inhibitors to suppress B cell receptor-mediated activation of B cells in human blood is as follows:
Human whole blood (HWB) is obtained from healthy volunteers, with the following restrictions: 24 hr drug-free, non-smokers. Blood is collected by venipuncture into Vacutainer tubes anticoagulated with sodium heparin. Test compounds are diluted to ten times the desired starting drug concentration in PBS (20×), followed by three-fold serial dilutions in 10% DMSO in PBS to produce a nine point dose-response curve. 5.5 μl of each compound dilution is added in duplicate to a 2 mL 96-well V bottom plate (Analytical Sales and Services, #59623-23); 5.5 μl of 10% DMSO in PBS is added to control and no-stimulus wells. HWB ([…] is added to each well, and after mixing the plates are incubated at 37 C, 5% CO2, 100% humidity for 30 minutes. Goat F(ab′)2 anti-human IgM (Southern Biotech, #2022-14) (10 μl of a 500 μ/mL solution, 50 μg/mL final concentration) is added to each well (except the no-stimulus wells) with mixing and the plates are incubated for an additional 20 hours. At the end of the 20 hour incubation, samples are incubated with florescent-probe-labeled anti-bodies (15 ul PE Mouse anti-Human CD20, BD Pharmingen, #555623, and/or 20 ul APC Mouse anti-Human CD69, BD Pharmingen #555533) for 30 minutes, at 37 C, 5% CO2, 100% humidity. Included are induced control, unstained and single stains for compensation adjustments and initial voltage settings. Samples are then lysed with 1 mL of 1× Pharmingen Lyse Buffer (BD Pharmingen #555899), and plates are centrifuged at 1800 rpm for 5 minutes. Supernatants are removed via suction and the remaining pellets are lysed again with another 1 mL of 1× Pharmingen Lyse Buffer, and plates are spun down as before. Supernatants are aspirated and remaining pellets are washed in FACs buffer (PBS+1% FBS). After a final spin, the supernantants are removed and pellets are resuspended in 180 ul of FACs buffer. Samples are transferred to a 96 well plate suitable to be run on the HTS 96 well system on the BD LSR II flow cytometer. Using appropriate excitation and emission wavelengths for the fluorophores used, data are acquired and percent positive cell values are obtained using Cell Quest Software. Results are initially analyzed by FACS analysis software (Flow Jo). […] The IC50 values are calculated using XLfit software version 3, equation 201.

IC50 | Compound
111 nM | Cn1cc(-c2cccc(N3CCNc4cc(C5CC5)ccc4C3=O)c2CO)cc(Nc2ccc(C(=O)N3CCOCC3)cn2)c1=O [Compound I-1, 8-Cyclopropyl-4-(2-hydroxymethyl-3-{1-methyl-5-[5-(morpholine-4-carbonyl)-pyridin-2-ylamino]-6-oxo-1,6-dihydro-pyridin-3-yl}-phenyl)-1,2,3,4-tetrahydro-benzo[e][1,4]diazepin-5-one]
96 nM | Cn1cc(-c2cccc(N3CCNc4cc(C5CC5)ccc4C3=O)c2CO)cc(Nc2ccc(N3CCOCC3)cn2)c1=O [Compound I-2, 8-Cyclopropyl-4-{2-hydroxymethyl-3-[1-methyl-5-(5-morpholin-4-yl-pyridin-2-ylamino)-6-oxo-1,6-dihydro-pyridin-3-yl]-phenyl}-1,2,3,4-tetrahydro-benzo[e][1,4]diazepin-5-one]
18 nM | Cn1cc(-c2cccc(N3CCNc4cc(C(C)(C)C)ccc4C3=O)c2CO)cc(Nc2ccc(C(=O)N3CCOCC3)cn2)c1=O [Compound I-3, 8-tert-Butyl-4-(2-hydroxymethyl-3-{1-methyl-5-[5-(morpholine-4-carbonyl)-pyridin-2-ylamino]-6-oxo-1,6-dihydro-pyridin-3-yl}-phenyl)-1,2,3,4-tetrahydro-benzo[e][1,4]diazepin-5-one]
38 nM | CN1CCN(c2ccc(Nc3cc(-c4cccc(N5CCNc6cc(C(C)(C)C)ccc6C5=O)c4CO)cn(C)c3=O)nc2)CC1 [Compound I-4, 8-tert-Butyl-4-(2-hydroxymethyl-3-{1-methyl-5-[5-(4-methyl-piperazin-1-yl)-pyridin-2-ylamino]-6-oxo-1,6-dihydro-pyridin-3-yl}-phenyl)-1,2,3,4-tetrahydro-benzo[e][1,4]diazepin-5-one]
16 nM | Cn1cc(-c2cccc(N3CCOc4cc(C(C)(C)C)ccc4C3=O)c2CO)cc(Nc2ccc(C(=O)N3CCOCC3)cn2)c1=O [II-1, 8-tert-Butyl-4-(2-hydroxymethyl-3-{1-methyl-5-[5-(morpholine-4-carbonyl)-pyridin-2-ylamino]-6-oxo-1,6-dihydro-pyridin-3-yl}-phenyl)-3,4-dihydro-2H-benzo[f][1,4]oxazepin-5-one]
4 nM | CN1CCN(c2ccc(Nc3cc(-c4cccc(N5CCOc6cc(C(C)(C)C)ccc6C5=O)c4CO)cn(C)c3=O)nc2)CC1 [II-2, 8-tert-Butyl-4-(2-hydroxymethyl-3-{1-methyl-5-[5-(4-methyl-piperazin-1-yl)-pyridin-2-ylamino]-6-oxo-1,6-dihydro-pyridin-3-yl}-phenyl)-3,4-dihydro-2H-benzo[f][1,4]oxazepin-5-one]
8 nM | CCN1CCN(c2ccc(Nc3cc(-c4cccc(N5CCOc6cc(C(C)(C)C)ccc6C5=O)c4CO)cn(C)c3=O)nc2)CC1 [II-3, 8-tert-Butyl-4-(3-{5-[5-(4-ethyl-piperazin-1-yl)-pyridin-2-ylamino]-1-methyl-6-oxo-1,6-dihydro-pyridin-3-yl}-2-hydroxymethyl-phenyl)-3,4-dihydro-2H-benzo[f][1,4]oxazepin-5-one]
